Data set [1] has as its system β-Pix MO-induced hemorrhage in zebrafish. In words: βPix morpholino-induced hemorrhage in zebrafish, rescue by drugs. The class given is in vivo, zebrafish (Danio rerio). The protocol: Morpholino oligonucleotides (MOs) were custom-synthesized by Gene Tools (Carvalis, Oreg.); their sequences are shown in Table 1.
(§1) Danieau buffer (58 mM NaCl, 0.7 mM KCl, 0.4 mM MgSO4, 0.6 mM Ca(NO3)2, 5.0 mM HEPES, pH 7.6) was used to dilute the MO solutions to 0.2 mM final concentration. Individual wells were placed on a 1.0% agarose plate, in which the embryos were positioned. Afterwards, the MO solution was injected through the cell yolk into embryos of 1 to 4 cell-stage. The injected quantities varied from 0.5 to 15 ng.
bbhm292 zebrafish mutant has a hypomorphic mutation in βPix, resulting in ICH/BMH and hydrocephalus. The MO is βPixexon6-MO which blocks splicing of exon 6 and results in premature protein termination. […] Higher doses of βPixexon6-MO (up to 8 ng) result in a lack of blood circulation, and therefore no ICH/BMH was detected. Injection of 8 ng results in complete missplicing of βPix and therefore a null phenotype, whereas lower doses retain some normally spliced βPix. The βPixexon6-MO sequence is 5′-[…]-3′ [SEQ ID NO: 1]. 3Pixexon6-MO was injected into the embryos at the 1-2 cell stage, and compounds were added 12 hpf.
(§2) The first three morpholino pairs were good for the efficacy study. Efficacy assays were performed using Artemether (ARM, Sigma) and artemesunate (ART, GMP). […] Treating these morphants with the drugs rescued the ICH phenotype.

Data set [2] relates to Pak2a - exon8 morpholino-induced hemorrhage in zebrafish. The data set is described as follows: Pak2a morpholino-induced hemorrhage in zebrafish, rescue by drugs. It counts as in vivo, zebrafish (Danio rerio). Particulars: Danio rerio; Table 6. The protocol: as §1
Another MO was designed to block the splice-donor sites after exon 8 in pak2a. Pak2a is the gene mutated in the rhdmi149 zebrafish mutant that develops ICH/BMH.
Efficacy assays were performed using Artemether (ARM, Sigma) and artemesunate (ART, GMP).

Data set [3] relates to Hmgcrb - splice morpholino-induced hemorrhage in zebrafish. In words: Hmgcrb morpholino-induced hemorrhage in zebrafish, rescue by drugs. It counts as in vivo, zebrafish (Danio rerio). Particulars: Danio rerio; Table 6. The protocol: as §1, §2
In the next data set the test system is zebrafish larvae. In words: Toxicity assay in zebrafish larvae (heart beat, blood flow, cardiac edema). It counts as in vivo, zebrafish (Danio rerio). The protocol: The embryos were collected and distributed into a 96-well plate in 0.5% DMSO, similar to efficacy assays. […] Heart beat and blood flow were ranked from 3 (normal heart beat or blood flow) to 0 (no heart beat or blood flow). Cardiac edema was ranked from 0 (normal heart without edema) to −3 (severe cardiac edema). […] The ratio of TC50/EC50 was calculated in each case.
Heart beat and blood flow were ranked from 3 (normal heart beat or blood flow) to 0 (no heart beat or blood flow). Cardiac edema was ranked from 0 (normal heart without edema) to −3 (severe cardiac edema). […] Data is expressed as mean±SEM from 3 experiments.

The test system of a further data set is Integrin β3 (Itgb3) mRNA. In words: qRT-PCR of integrin β3 mRNA in atorvastatin-treated zebrafish larvae. The class given is in vivo, zebrafish (Danio rerio). Particulars: 1 μmol/L atorvastatin plus 500 nmol/L drug, n=3. How it is done: (§3) qRT-PCR was used to assess relative expression of selected genes (an average of two biological trial and three technical replicates and each trial is a pool of 60 larvae/treatment), using β-actin as the housekeeping gene control. 3 dpf, Tg(Flk:GFP; Gata:dsRed) zebrafish larvae were used for RNA extraction and cDNA synthesis. Atorvastatin and drug treatment were performed as previously mentioned in drug screening. Total RNA was extracted from these larvae (a pool of 50-60 larvae/treatment) using the RNeasy extraction kit (Qiagen, Mississauga, ON, CAN) and treated with DNase. The concentration of total RNA was determined spectrophotometrically at 260/280 nm using a NanoDrop™ spectrophotometer. First-strand cDNA was synthesized from 1 μg of total RNA using random hexamer primers.
(§4) In each case, forward primer is shown on the top and reverse primer on the bottom.
(§5) PCR was carried out in a 20 μl total volume and included 1×PCR buffer, 1.25 mM MgCl2, 0.25 mM dNTP, 1 U Taq polymerase, 0.5 μmol/L forward, and reverse primers and 1 μl cDNA.

The next data set concerns CCM3 (Ccm3) mRNA. The data set is described as follows: qRT-PCR of CCM3 mRNA in atorvastatin-treated zebrafish larvae. Particulars: 1 μmol/L atorvastatin plus 500 nmol/L drug, n=3. The class given is in vivo, zebrafish (Danio rerio). How it is done:
as §3, §4, §5

The nature of data set [4]: Spectrophotometer analysis of blood hemoglobin concentration (Drabkin's method). The class given is in vivo, C57BL/6 mice. Particulars: 25 mg/kg or 100 mg/kg for 3 days, n=4; no statistical difference between groups. The protocol: Drabkin's reagent (Sigma Aldrich) was used for calorimetric quantification of hemoglobin concentration at 540 nm. C57BL/6 mice were randomly assigned to three groups (each n=4): Control, Low-dose ARM, and High-dose ARM. For ARM groups, three days of 25 mg/kg/day and 100 mg/kg/day ARM were administered for low and high dose, respectively. Blood from saphenous vein were collected at day 4 and tested for hemoglobin concentration using UV 3600 Shimadzu spectrophotometer. A standard curve was generated using a known standard solution of cyanmethemoglobin, and blood concentrations of Hb was compared to the standard curve.
To assess possible anemia effect from ARM treatment as some previous studies speculated, blood samples were tested for hemoglobin concentration after ARM treatment. Blood hemoglobin concentration was assessed using Drabkins' method. Spectrophotometer data was compared to a standard curve from standard cyanmethemoglobin concentrations. The control group received no drug. The Treatment Dose group received 3 days injection of low dose ARM (25 mg/kg), 4× Treatment Dose group received 3 days injection of high dose ARM (100 mg/kg).

[5] abbreviates: drug from Sequoia Research (UK).
[6] abbreviates: drug from Sigma, 3 dpf larvae, drug added 24 hpf.

Consider `CO[C@H]1O[C@@H]2O[C@@]3(C)CC[C@H]4[C@H](C)CC[C@@H]([C@H]1C)[C@@]24OO3` [Artemether], for which the EC50 in data set [1] (Danio rerio, Table 6, read-out: EC50 to rescue hemorrhage induced by βPix - exon6 morpholino) was found to be 51.6 ± 11.7 nM. In addition, in data set [1] (inhibition of β-Pix MO-induced hemorrhage), the “Efficacy on β-Pix MO Hemorrhage” value is “+++++ (One + sign represents 20% inhibition on 1 μmol/L ATV or β-Pix MO-induced hemorrhage.)”. This compound also registered an EC50 in data set [2] of 39.1 ± 8 nM. Besides, the EC50 in data set [3] was 62.5 ± 8.3 nM. In the data set on zebrafish larvae (setting [5]), the “TC50 (Blood flow)” value was determined as 746.3 nM, the “TC50/EC50 ratio (Blood flow)” value is on record as “(9.2)”, the “TC50/EC50 ratio (Edema)” value is listed as “(6.5e+010)” and the “TC50/EC50 ratio (Heart beat)” value is recorded as “(1.3e+011)”. In addition, in the data set with zebrafish larvae (drug from Sigma), the “TC50/EC50 ratio (Blood flow)” value is “(39.5)”, the “TC50/EC50 ratio (Edema)” value was “(87.1)” and the “TC50/EC50 ratio (Heart beat)” value is reported as “(94.3)”. For the same compound, in the data set on zebrafish larvae (setting [6]), the “TC50 (Blood flow)” value came to 975.3 nM, the “TC50 (Edema)” value is 19564 nM and the “TC50 (Heart beat)” value worked out at 2328 nM. For the same compound, the “Safety in zebrafish embryos (EC50 compared with TC50)” value in the data set on zebrafish larvae (result in words) is given as “EC50 is much lower than TC50”. In addition, the “Integrin β3 transcription level (qRT-PCR)” value in the data set with Integrin β3 (Itgb3) mRNA is listed as “upregulation”. Further, the “CCM3 transcription level (qRT-PCR)” value in the data set on CCM3 (Ccm3) mRNA is recorded as “returned to normal”. Moreover, the “Anemia (blood hemoglobin concentration)” value in data set [4] is given as “did not cause anemia”.

The record behind these values is patent publication US10292991B2, “Small molecule therapeutic compounds that reduce the incidence of intracerebral hemorrhage and brain microhemorrhages” (St. Michaels Hospital, priority 2016, dated 2019).
